How the values were obtained:
CWR22R = assay: Antiproliferative activity against human 22Rv1 cells with high PSMA expression assessed as effect on cell viability incubated for 72 hrs by MTT assay; format: functional, cell-based; conditions: 22Rv1, 72 h
LNCaP = assay: Antiproliferative activity against human LNCaP cells with high PSMA expression assessed as effect on cell viability incubated for 72 hrs by MTT assay; format: functional, cell-based
PC-3 = assay: Antiproliferative activity against PSMA negative human PC-3 cells assessed as effect on cell viability incubated for 72 hrs by MTT assay; format: functional
[1] = Antiproliferative activity against PSMA negative human RWPE-1 cells assessed as effect on cell viability incubated for 72 hrs by MTT assay; format: toxicity, cell-based; conditions: RWPE-1 cells (PSMA negative)

Question: Which results are given for CSCC[C@H](NC(=O)CCC(=O)NCCCC[C@H](NC(=O)N[C@@H](CCC(=O)O)C(=O)O)C(=O)O)C(=O)N1CCN(C(=O)c2cc(Cc3n[nH]c(=O)c4ccccc34)ccc2F)CC1?
Answer: IC50 (CWR22R): 175 µM; IC50 (LNCaP): 190 µM; CC50 (PC-3): > 1 mM; CC50 at 72 h [1]: > 1 mM

Question: For O=C(O)CC[C@H](NC(=O)N[C@@H](CCCCNC(=O)CCOC(=O)N1CCN(C(=O)c2cc(Cc3n[nH]c(=O)c4ccccc34)ccc2F)CC1)C(=O)O)C(=O)O, which IC50 (CWR22R) is on record?
Answer: 289 µM

Question: What about the IC50 (LNCaP) of the same molecule?
Answer: 182 µM

Question: What about the CC50 (PC-3) of the same molecule?
Answer: > 1 mM

Question: And the CC50 at 72 h [1]?
Answer: > 1 mM

Question: Which IC50 (CWR22R) does the source give for O=C(O)CC[C@H](NC(=O)N[C@@H](CCCCNC(=O)CCCNC(=O)N1CCN(C(=O)c2cc(Cc3n[nH]c(=O)c4ccccc34)ccc2F)CC1)C(=O)O)C(=O)O here?
Answer: 337 µM

Question: And the IC50 (LNCaP)?
Answer: 300 µM

Question: And the CC50 (PC-3)?
Answer: > 1 mM

Question: What about the CC50 at 72 h [1] of the same molecule?
Answer: > 1 mM

Question: Which results are given for O=C(O)CC[C@H](NC(=O)N[C@@H](CCCCNC(=O)CCN1CCN(C(=O)c2cc(Cc3n[nH]c(=O)c4ccccc34)ccc2F)CC1)C(=O)O)C(=O)O?
Answer: IC50 (CWR22R): 286 µM; IC50 (LNCaP): 284 µM; CC50 (PC-3): > 1 mM; CC50 at 72 h [1]: > 1 mM

Question: Which IC50 (CWR22R) does the source give for O=C(O)CC[C@H](NC(=O)N[C@@H](CCCCNC(=O)CCNC(=O)N1CCN(C(=O)c2cc(Cc3n[nH]c(=O)c4ccccc34)ccc2F)CC1)C(=O)O)C(=O)O here?
Answer: 327 µM

Question: What about the IC50 (LNCaP) of the same molecule?
Answer: 273 µM

Question: What about the CC50 (PC-3) of the same molecule?
Answer: > 1 mM

Question: What about the CC50 at 72 h [1] of the same molecule?
Answer: > 1 mM

Question: For O=C(O)CC[C@H](NC(=O)N[C@@H](CCCCNC(=O)CCC(=O)N[C@@H](Cc1ccccc1)C(=O)N1CCN(C(=O)c2cc(Cc3n[nH]c(=O)c4ccccc34)ccc2F)CC1)C(=O)O)C(=O)O, which IC50 (CWR22R) is on record?
Answer: 132 µM

Question: And the IC50 (LNCaP)?
Answer: 152 µM

Question: And the CC50 (PC-3)?
Answer: > 1 mM

Question: And the CC50 at 72 h [1]?
Answer: > 1 mM

Question: Which results are given for CN(CC(=O)N1CCN(C(=O)c2cc(Cc3n[nH]c(=O)c4ccccc34)ccc2F)CC1)C(=O)CCC(=O)NCCCC[C@H](NC(=O)N[C@@H](CCC(=O)O)C(=O)O)C(=O)O?
Answer: IC50 (CWR22R): 129 µM; IC50 (LNCaP): 136 µM; CC50 (PC-3): > 1 mM; CC50 at 72 h [1]: > 1 mM

Question: Which IC50 (CWR22R) does the source give for O=C(O)CC[C@H](NC(=O)N[C@@H](CCCCNC(=O)N1CCN(C(=O)c2cc(Cc3n[nH]c(=O)c4ccccc34)ccc2F)CC1)C(=O)O)C(=O)O here?
Answer: 314 µM

Question: And the IC50 (LNCaP)?
Answer: 251 µM

Question: What about the CC50 (PC-3) of the same molecule?
Answer: > 1 mM

Question: What about the CC50 at 72 h [1] of the same molecule?
Answer: > 1 mM

Question: For C[C@H](NC(=O)CCC(=O)NCCCC[C@H](NC(=O)N[C@@H](CCC(=O)O)C(=O)O)C(=O)O)C(=O)N1CCN(C(=O)c2cc(Cc3n[nH]c(=O)c4ccccc34)ccc2F)CC1, which IC50 (CWR22R) is on record?
Answer: 133 µM

Question: What about the IC50 (LNCaP) of the same molecule?
Answer: 129 µM

Question: What about the CC50 (PC-3) of the same molecule?
Answer: > 1 mM

Question: And the CC50 at 72 h [1]?
Answer: > 1 mM

Question: With CC[C@@H](C)[C@H](NC(=O)CCC(=O)NCCCC[C@H](NC(=O)N[C@@H](CCC(=O)O)C(=O)O)C(=O)O)C(=O)N1CCN(C(=O)c2cc(Cc3n[nH]c(=O)c4ccccc34)ccc2F)CC1 as the molecule, how does the IC50 (CWR22R) read?
Answer: 126 µM

Question: What about the IC50 (LNCaP) of the same molecule?
Answer: 135 µM

Question: And the CC50 (PC-3)?
Answer: > 1 mM

Question: What about the CC50 at 72 h [1] of the same molecule?
Answer: > 1 mM

Question: With O=C(O)CC[C@H](NC(=O)N[C@@H](CCCCNC(=O)CCCNC(=O)CCCCCCC(=O)N1CCN(C(=O)c2cc(Cc3n[nH]c(=O)c4ccccc34)ccc2F)CC1)C(=O)O)C(=O)O as the molecule, how does the IC50 (CWR22R) read?
Answer: 208 µM

Question: What about the IC50 (LNCaP) of the same molecule?
Answer: 238 µM

Question: What about the CC50 (PC-3) of the same molecule?
Answer: > 1 mM

Question: And the CC50 at 72 h [1]?
Answer: > 1 mM

Question: With O=C(O)CC[C@H](NC(=O)N[C@@H](CCCCNC(=O)CCC(=O)NCCCC(=O)N1CCN(C(=O)c2cc(Cc3n[nH]c(=O)c4ccccc34)ccc2F)CC1)C(=O)O)C(=O)O as the molecule, how does the IC50 (CWR22R) read?
Answer: 134 µM

Question: What about the IC50 (LNCaP) of the same molecule?
Answer: 162 µM

Question: And the CC50 (PC-3)?
Answer: > 1 mM

Question: What about the CC50 at 72 h [1] of the same molecule?
Answer: > 1 mM

Question: Which IC50 (CWR22R) does the source give for O=C(O)CC[C@H](NC(=O)N[C@@H](CCCCNC(=O)CCCCCCC(=O)N1CCN(C(=O)c2cc(Cc3n[nH]c(=O)c4ccccc34)ccc2F)CC1)C(=O)O)C(=O)O here?
Answer: 137 µM

Question: And the IC50 (LNCaP)?
Answer: 99.9 µM

Question: What about the CC50 (PC-3) of the same molecule?
Answer: > 1 mM

Question: And the CC50 at 72 h [1]?
Answer: > 1 mM

Question: Which IC50 (CWR22R) does the source give for NC(=O)NCCC[C@H](NC(=O)CCC(=O)NCCCC[C@H](NC(=O)N[C@@H](CCC(=O)O)C(=O)O)C(=O)O)C(=O)N1CCN(C(=O)c2cc(Cc3n[nH]c(=O)c4ccccc34)ccc2F)CC1 here?
Answer: 265 µM

Question: What about the IC50 (LNCaP) of the same molecule?
Answer: 242 µM

Question: What about the CC50 (PC-3) of the same molecule?
Answer: > 1 mM

Question: What about the CC50 at 72 h [1] of the same molecule?
Answer: > 1 mM

Question: With O=C(O)CC[C@H](NC(=O)N[C@@H](CCCCNC(=O)CCC(=O)N[C@@H](C(=O)N1CCN(C(=O)c2cc(Cc3n[nH]c(=O)c4ccccc34)ccc2F)CC1)c1ccccc1)C(=O)O)C(=O)O as the molecule, how does the IC50 (CWR22R) read?
Answer: 162 µM

Question: And the IC50 (LNCaP)?
Answer: 173 µM

Question: And the CC50 (PC-3)?
Answer: > 1 mM

Question: And the CC50 at 72 h [1]?
Answer: > 1 mM

Question: What does the source list for O=C(O)CC[C@H](NC(=O)N[C@@H](CCCCNC(=O)c1cc(Cc2n[nH]c(=O)c3ccccc23)ccc1F)C(=O)O)C(=O)O?
Answer: IC50 (CWR22R): 455 µM; IC50 (LNCaP): 283 µM; CC50 (PC-3): > 1 mM; CC50 at 72 h [1]: > 1 mM

Question: With CC(C)[C@H](NC(=O)CCC(=O)NCCCC[C@H](NC(=O)N[C@@H](CCC(=O)O)C(=O)O)C(=O)O)C(=O)N1CCN(C(=O)c2cc(Cc3n[nH]c(=O)c4ccccc34)ccc2F)CC1 as the molecule, how does the IC50 (CWR22R) read?
Answer: 122 µM

Question: And the IC50 (LNCaP)?
Answer: 111 µM

Question: What about the CC50 (PC-3) of the same molecule?
Answer: > 1 mM

Question: And the CC50 at 72 h [1]?
Answer: > 1 mM

Question: With O=C(O)CC[C@H](NC(=O)N[C@@H](CCCCNC(=O)CCC(=O)N[C@@H](CO)C(=O)N1CCN(C(=O)c2cc(Cc3n[nH]c(=O)c4ccccc34)ccc2F)CC1)C(=O)O)C(=O)O as the molecule, how does the IC50 (CWR22R) read?
Answer: 209 µM

Question: What about the IC50 (LNCaP) of the same molecule?
Answer: 202 µM

Question: What about the CC50 (PC-3) of the same molecule?
Answer: > 1 mM

Question: What about the CC50 at 72 h [1] of the same molecule?
Answer: > 1 mM

Question: With O=C(O)CC[C@H](NC(=O)N[C@@H](CCCCNC(=O)CCC(=O)NCC(=O)N1CCN(C(=O)c2cc(Cc3n[nH]c(=O)c4ccccc34)ccc2F)CC1)C(=O)O)C(=O)O as the molecule, how does the IC50 (CWR22R) read?
Answer: 126 µM

Question: And the IC50 (LNCaP)?
Answer: 147 µM

Question: What about the CC50 (PC-3) of the same molecule?
Answer: > 1 mM

Question: What about the CC50 at 72 h [1] of the same molecule?
Answer: > 1 mM

Question: With O=C(O)CC[C@H](NC(=O)N[C@@H](CCCCNC(=O)CCCC(=O)N1CCN(C(=O)c2cc(Cc3n[nH]c(=O)c4ccccc34)ccc2F)CC1)C(=O)O)C(=O)O as the molecule, how does the IC50 (CWR22R) read?
Answer: 139 µM

Question: And the IC50 (LNCaP)?
Answer: 96.6 µM

Question: And the CC50 (PC-3)?
Answer: > 1 mM

Question: What about the CC50 at 72 h [1] of the same molecule?
Answer: > 1 mM

Question: For CC(C)C[C@H](NC(=O)CCC(=O)NCCCC[C@H](NC(=O)N[C@@H](CCC(=O)O)C(=O)O)C(=O)O)C(=O)N1CCN(C(=O)c2cc(Cc3n[nH]c(=O)c4ccccc34)ccc2F)CC1, which IC50 (CWR22R) is on record?
Answer: 113 µM

Question: And the IC50 (LNCaP)?
Answer: 130 µM

Question: What about the CC50 (PC-3) of the same molecule?
Answer: > 1 mM

Question: And the CC50 at 72 h [1]?
Answer: > 1 mM

Question: Which results are given for CC(C)[C@@H](NC(=O)CCC(=O)NCCCC[C@H](NC(=O)N[C@@H](CCC(=O)O)C(=O)O)C(=O)O)C(=O)N1CCN(C(=O)c2cc(Cc3n[nH]c(=O)c4ccccc34)ccc2F)CC1?
Answer: IC50 (CWR22R): 128 µM; IC50 (LNCaP): 121 µM; CC50 (PC-3): > 1 mM; CC50 at 72 h [1]: > 1 mM

Question: What does the source list for O=C(O)CC[C@H](NC(=O)N[C@@H](CCCCNC(=O)CCSSCCC(=O)N1CCN(C(=O)c2cc(Cc3n[nH]c(=O)c4ccccc34)ccc2F)CC1)C(=O)O)C(=O)O?
Answer: IC50 (CWR22R): 432 µM; IC50 (LNCaP): 259 µM; CC50 (PC-3): > 1 mM; CC50 at 72 h [1]: > 1 mM
